Columns and labels:
[1] = cited from earlier work
[2] = test system: pancreatic adenocarcinoma associated genes; experiment: TaqMan Array gene expression in MIAPaCa-2, normalized for GAPDH; format: cell-based, Human; details: Mia-PACA-2, 24 hs, CBD 3.8, MLT 200, AKBA 7.5 micrograms/ml
Experimental: Total RNA from untreated or CBD, MLT, AKBA alone and in combination treated cell lines was extracted using Rneasy Mini kit (Qiagen, Milan, Italy). One microgram of total RNA from each sample was subjected to reverse transcription in a total volume of 20 μL using the High-Capacity cDNA Archive Kit (Applied Biosystem, Foster City, […], USA) according to the instructions. cDNAs were analyzed by qRT-PCR performed using an IQ5 Multicolor Real time PCR Detection system. Quantitative real-time gene expression was performed with the TaqMan® Array Human Pancreatic Adenocarcinoma 96-well Plate, containing 92 assays to pancreatic adenocarcinoma associated genes and 4 assays to candidate endogenous control genes, was purchased (Thermo Fisher, Grand Island, NY, USA) and used to evaluate the treatments in modulating PDAC-related genes (Table 1). Measurement of different housekeeping genes (GAPDH; HPRT1; GUSB) on the samples was used to normalize mRNA content. The gene expression levels of treated cell lines were expressed as relative fold compared with untreated or vehicle-treated cells.
To elucidate the molecular events induced by CBD, MLT and AKBA alone and in combination, 92 genes involved in PDAC progression and aggressiveness were evaluated by Taqman Array. Both cell lines were treated with CBD, MLT and AKBA alone and in combination, and the molecular pathways of PDAC associated gene were evaluated.
Target mRNA levels were normalized for GAPDH expression.

[3] = normalized for GAPDH, Akt pathways
[4] = normalized for GAPDH, Akt-pathways
[5] = normalized for GAPDH, DNA repair
[6] = normalized for GAPDH, NfkB pathways
[7] = normalized for GAPDH, Ras pathways
[8] = normalized for GAPDH, TGF patways
[9] = normalized for GAPDH, TGF-patways
[10] = normalized for GAPDH, angiogenesis
[11] = normalized for GAPDH, apoptosis
[12] = normalized for GAPDH, cell cycle
[13] = normalized for GAPDH, inflammation
[14] = normalized for GAPDH, proliferation

SMILES: CC(=O)O[C@@H]1CC[C@@]2(C)[C@@H](CC[C@]3(C)[C@@H]2C(=O)C=C2[C@@H]4[C@@H](C)[C@H](C)CC[C@]4(C)CC[C@]23C)[C@@]1(C)C(=O)O [AKBA, (3R,4R,4aR,6aR,6bS,8aR,11R,12S,12aR,14aR,14bS)-3-acetyloxy-4,6a,6b,8a,11,12,14b-heptamethyl-14-oxo-1,2,3,4a,5,6,7,8,9,10,11,12,12a, 14a-tetradecahydropicene-4-carboxylic acid]
- solubility ([1]; 1:2 solution of DMSO:PBS (pH 7.2)): approximately 0.3 mg/ml
- solubility in aqueous buffers ([1]; aqueous buffers): sparingly soluble
- GAPDH relative expression ([2]; GAPDH is the normalizer): 1.00
- PK3CB relative expression [2, 3]: 0.19
- PK3CD relative expression [2, 3]: 0.06
- AKT1 relative expression [2, 4]: 0.18
- AKT2 relative expression [2, 4]: 0.49
- AKT3 relative expression [2, 4]: 0.00
- IGF1 relative expression [2, 4]: 0.00
- PK3CA relative expression [2, 4]: 0.02
- PK3R1 relative expression [2, 4]: 0.04
- BRCA2 relative expression [2, 5]: 0.12
- MDM2 relative expression [2, 5]: 0.05
- TP53 relative expression [2, 5]: 0.35
- HSP90AA1 relative expression ([2]; normalized for GAPDH, Heat sock protein): 0.26
- NFKB1 relative expression [2, 6]: 0.12
- NFKB2 relative expression [2, 6]: 0.12
- REL relative expression [2, 6]: 0.09
- RELA relative expression [2, 6]: 0.11
- RELB relative expression [2, 6]: 0.13
- RHOA relative expression [2, 6]: 0.33
- RHOB relative expression [2, 6]: 0.06
- BRAF relative expression [2, 7]: 0.22
- E2F1 relative expression [2, 7]: 0.17
- E2F3 relative expression [2, 7]: 0.08
- E2F4 relative expression [2, 7]: 0.22
- EGF relative expression [2, 7]: 0.00
- EGFR relative expression [2, 7]: 0.22
- ELK1 relative expression [2, 7]: 0.13
- ERBB2 relative expression [2, 7]: 0.08
- GRB2 relative expression [2, 7]: 0.46
- HBEGF relative expression [2, 7]: 0.53
- KRAS relative expression [2, 7]: 0.11
- MAP2K1 relative expression [2, 7]: 0.12
- MAP2K2 relative expression [2, 7]: 0.12
- MAPK1 relative expression [2, 7]: 0.72
- MAPK3 relative expression [2, 7]: 0.00
- RAF1 relative expression [2, 7]: 0.10
- RB1 relative expression [2, 7]: 0.17
- SOS1 relative expression [2, 7]: 0.11
- TGFB2 relative expression [2, 8]: 0.10
- TGFB3 relative expression [2, 8]: 0.05
- TGFBR1 relative expression [2, 8]: 0.06
- SMAD2 relative expression [2, 9]: 0.04
- SMAD3 relative expression [2, 9]: 0.22
- SMAD4 relative expression [2, 9]: 0.10
- TGFA relative expression [2, 9]: 0.02
- TGFB1 relative expression [2, 9]: 0.13
- TGFBR2 relative expression [2, 9]: 0.09
- FIGF relative expression [2, 10]: 0.00
- VEGFA relative expression [2, 10]: 0.41
- VEGFB relative expression [2, 10]: 0.16
- VEGFC relative expression [2, 10]: 0.11
- BCL2L1 relative expression [2, 11]: 0.28
- BCL2 relative expression [2, 11]: 0.00
- BIRC5 relative expression [2, 11]: 0.26
- CCNA2 relative expression [2, 12]: 0.12
- CCNB1 relative expression [2, 12]: 0.24
- CCND1 relative expression [2, 12]: 0.12
- CCND2 relative expression [2, 12]: 0.00
- CCNE1 relative expression [2, 12]: 0.12
- CCNE2 relative expression [2, 12]: 0.10
- CDC42 relative expression [2, 12]: 0.02
- CDK2 relative expression [2, 12]: 0.12
- CDK4 relative expression [2, 12]: 0.30
- CDKN1A relative expression [2, 12]: 0.34
- CDKN1B relative expression [2, 12]: 0.12
- CDKN2A relative expression [2, 12]: 0.14
- CDKN2B relative expression [2, 12]: 0.24
- CDKN2C relative expression [2, 12]: 0.14
- CDKN2D relative expression [2, 12]: 0.06
- IL6 relative expression [2, 13]: 0.00
- JAK1 relative expression [2, 13]: 1.32
- JAK2 relative expression [2, 13]: 0.05
- JAK3 relative expression [2, 13]: 0.04
- STAT1 relative expression [2, 13]: 0.34
- STAT2 relative expression [2, 13]: 0.12
- STAT3 relative expression [2, 13]: 0.20
- STAT6 relative expression [2, 13]: 0.12
- STATSB relative expression [2, 13]: 0.22
- MMP1 relative expression ([2]; normalized for GAPDH, invasion): 0.02
- MMP2 relative expression ([2]; normalized for GAPDH, invasion): 0.24
- MMP3 relative expression ([2]; normalized for GAPDH, invasion): 0.00
- MMP7 relative expression ([2]; normalized for GAPDH, invasion): 0.04
- MMP9 relative expression ([2]; normalized for GAPDH, invasion): 0.04
- PTGS2 relative expression ([2]; normalized for GAPDH, invasion): 0.10
- RAC1 relative expression ([2]; normalized for GAPDH, invasion): 0.12
- RAC2 relative expression ([2]; normalized for GAPDH, invasion): 0.01
- KIT relative expression [2, 14]: 0.00
- NOTCH1 relative expression [2, 14]: 0.06
- SRC relative expression [2, 14]: 0.15

— US20240180872A1, “METHODS AND COMPOUNDS OF CANNABIDIOL, MELATONIN AND AKBA FOR TREATING PANCREATIC CANCER” (priority 2021, published 2024)
